Data on 27 compounds can be found in patent US8129398B2 (priority 2008, dated 2012).

SMILES strings stand for the structures.

The assay deals with T1, HIV-integrase (Human immunodeficiency virus type 1 group M subtype B, UniProt P12497).
T1 construct: Recombinant integrase (0.26 ng) was incubated with the beads
In words: HIV-Integrase Inhibition Activity (SPA bead integration assay with P33 labeled target DNA). Type of assay: biochemical. Particulars: recombinant integrase, class symbols; read-out: in vitro activity. The method in brief: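 Strand integration read as bead-proximity CPM after P33 target DNA (0.1 fmol) and inhibitor were added to washed integrase–substrate DNA complexes on SPA beads. Enzyme bound 90 min at 37° C; EDTA (10 mM final) terminated reaction; IC50 graded A/B/C.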
`COc1ccc(CNC(=O)c2nc3n(c(=O)c2O)CC2CCC3(NC(=O)C(=O)N(C)C)CC2)cc1` [Example 375]: the IC50 was less than 10 nM.

Consider `Cc1cc(CNC(=O)c2nc3n(c(=O)c2O)CC2CCC3(NC(=O)C(C)(C)n3cc(C(=O)N4CCN(C)CC4)nn3)CC2)ccc1F` [Example 288, 7,10-Ethanopyrimido[1,2-a]azepine-2-carboxamide, N-[(4-fluoro-3-methylphenyl)methyl]-4,6,7,8,9,10-hexahydro-3-hydroxy-10-[[2-methyl-2-[4-[(4-methyl-1-piperazinyl)carbonyl]-1H-1,2,3-triazol-1-yl]-1-oxopropyl]amino]-4-oxo-], for which the IC50 was less than 10 nM.

As to `O=C(Nc1ccccn1)NC12CCC(CC1)Cn1c2nc(C(=O)NCc2ccc(F)cc2)c(O)c1=O` [Example 324, 7,10-Ethanopyrimido[1,2-a]azepine-2-carboxamide, N-[(4-fluorophenyl)methyl]-4,6,7,8,9,10-hexahydro-3-hydroxy-4-oxo-10-[[(2-pyridinylamino)carbonyl]amino]-], the IC50 was less than 10 nM.

With `CN(C)C(=O)C(=O)NC12CCC(CC1)Cn1c2nc(C(=O)NCc2ccccn2)c(O)c1=O` [Example 363], the IC50 fell in the range of 10 to 100 nM.

Consider `CN(C)C(=O)C(=O)NC12CCCC(Cn3c1nc(C(=O)NCc1ccc(F)cc1)c(O)c3=O)C2` (stereo not drawn) [Example 186, Ethanediamide, N′-[2-[[[(4-fluorophenyl)methyl]amino]carbonyl]-7,8,9,10-tetrahydro-3-hydroxy-4-oxo-7,11-methano-4H-pyrimido[1,2-a]azocin-11(6H)-yl]-N,N-dimethyl-], for which the IC50 is less than 10 nM.

As to `CCS(=O)(=O)N1CCCC1C(=O)NC12CCC(CC1)Cn1c2nc(C(=O)NCc2ccc(F)cc2)c(O)c1=O` (stereo not drawn) [Example 403], the IC50 was less than 10 nM.

Turning to `Cc1cc(F)ccc1CNC(=O)c1nc2n(c(=O)c1O)CC1CCC2(NC(=O)C(=O)N(C)C)CC1` [Example 120, N′-(2-((4-Fluoro-2-methylbenzyl)carbamoyl)-3-hydroxy-4-oxo-6,7,8,9-tetrahydro-7,10-ethanopyrimido[1,2-a]azepin-10(4H)-yl)-N,N-dimethylethanediamide], the IC50 was less than 10 nM.

For `Cc1c(C(=O)NC23CCC(CC2)Cn2c3nc(C(=O)NCc3ccc(F)cc3)c(O)c2=O)ncn1C` [Example 242, 7,10-Ethanopyrimido[1,2-a]azepine-2-carboxamide, 10-[[(1,5-dimethyl-1H-imidazol-4-yl)carbonyl]amino]-N-[(4-fluorophenyl)methyl]-4,6,7,8,9,10-hexahydro-3-hydroxy-4-oxo-], the IC50 was less than 10 nM.

With `CO[C@H]1C[C@@H](C(=O)NC23CCC(CC2)Cn2c3nc(C(=O)NCc3ccc(F)c(C)c3)c(O)c2=O)N(C(=O)c2cc(C)n(C)n2)C1` [Example 295, 7,10-Ethanopyrimido[1,2-a]azepine-2-carboxamide, 10-[[[(2S,4S)-1-[(1,5-dimethyl-1H-pyrazol-3-yl)carbonyl]-4-methoxy-2-pyrrolidinyl]carbonyl]amino]-N-[(4-fluoro-3-methylphenyl)methyl]-4,6,7,8,9,10-hexahydro-3-hydroxy-4-oxo-], the IC50 was less than 10 nM.

For `CN(C)C(=O)C(=O)NC12CCC(CC1)Cn1c2nc(C(=O)NCCCc2ccc(F)cc2)c(O)c1=O` [Example 130, N′-(2-((3-(4-Fluorophenyl)propyl)carbamoyl)-3-hydroxy-4-oxo-6,7,8,9-tetrahydro-7,10-ethanopyrimido[1,2-a]azepin-10(4H)-yl)-N,N-dimethylethanediamide], the IC50 is less than 10 nM.

As for `CN(C)C(=O)C(=O)NC12CCC(CCn3c1nc(C(=O)NCc1ccc(F)c(F)c1)c(O)c3=O)C2` (stereo not drawn) [Example 214, Ethanediamide, N′-[2-[[[(3,4-difluorophenyl)methyl]amino]carbonyl]-7,8,9,10-tetrahydro-3-hydroxy-4-oxo-8,11-methano-4H-pyrimido[1,2-a]azocin-11(6H)-yl]-N,N-dimethyl], the IC50 is less than 10 nM.

`O=C(NC12CCC(CC1)Cn1c2nc(C(=O)NCc2ccc(F)cc2)c(O)c1=O)c1ccnc(OCC(F)(F)F)c1` [Example 316, 7,10-Ethanopyrimido[1,2-a]azepine-2-carboxamide, N-[(4-fluorophenyl)methyl]-4,6,7,8,9,10-hexahydro-3-hydroxy-4-oxo-10-[[[2-(2,2,2-trifluoroethoxy)-4-pyridinyl]carbonyl]amino]-]: the IC50 was less than 10 nM.

As to `O=C(NC12CCC(CC1)Cn1c2nc(C(=O)NCc2ccc(F)cc2)c(O)c1=O)c1ccccn1` [Example 26, N-(4-Fluorobenzyl)-3-hydroxy-4-oxo-10-((2-pyridinylcarbonyl)amino)-4,6,7,8,9,10-hexahydro-7,10-ethanopyrimido[1,2-a]azepine-2-carboxamide], the IC50 is less than 10 nM.

Consider `CN(C)C(=O)CNC12CCC(CC1)Cn1c2nc(C(=O)NCc2ccc(F)cc2)c(O)c1=O` [Example 30, 10-((2-(Dimethylamino)-2-oxoethyl)amino)-N-(4-fluorobenzyl)-3-hydroxy-4-oxo-4,6,7,8,9,0-hexahydro-7,10-ethanopyrimido[1,2-a]azepine-2-carboxamide], for which the IC50 fell in the range of 10 to 100 nM.

For `Cc1cc(CNC(=O)c2nc3n(c(=O)c2O)CC2CCC3(NC(=O)C3=NNC(=O)CC3)CC2)ccc1F` [Example 305, 7,10-Ethanopyrimido[1,2-a]azepine-2-carboxamide, N-[(4-fluoro-3-methylphenyl)methyl]-4,6,7,8,9,10-hexahydro-3-hydroxy-4-oxo-10-[[(1,4,5,6-tetrahydro-6-oxo-3-pyridazinyl)carbonyl]amino]-], the IC50 is less than 10 nM.

Take `CN(C)C(=O)C(=O)NC12CCC(C)(CC1)Cn1c2nc(C(=O)NCc2ccc(F)cc2)c(O)c1=O` [Example 180, Ethanediamide, N′-[2-[[[(4-fluorophenyl)methyl]amino]carbonyl]-6,7,8,9-tetrahydro-3-hydroxy-7-methyl-4-oxo-7,10-ethanopyrimido[1,2-a]azepin-10(4H)-yl]-N,N-dimethyl-]: the IC50 is less than 10 nM.

For `CN(C)C(=O)C(=O)NC12CCC(CC1)Cn1c2nc(C(=O)NCc2ccc(F)cc2S(C)(=O)=O)c(O)c1=O` [Example 117, N′-(2-((4-Fluoro-2-(methylsulfonyl)benzyl)carbamoyl)-3-hydroxy-4-oxo-6,7,8,9-tetrahydro-7,10-ethanopyrimido[1,2-a]azepin-10(4H)-yl)-N,N-dimethylethanediamide], the IC50 lay in the range of 10 to 100 nM.

As for `CN(CCF)C(=O)C(=O)NC12CCC(CC1)Cn1c2nc(C(=O)NCc2ccc(F)cc2)c(O)c1=O` [Example 52, N′-(2-((4-Fluorobenzyl)carbamoyl)-3-hydroxy-4-oxo-6,7,8,9-tetrahydro-7,10-ethanopyrimido[1,2-a]azepin-10(4H)-yl)-N-(2-fluoroethyl)-N-methylethanediamide], the IC50 is less than 10 nM.

For the compound `CN(C(=O)c1cccnc1)C12CCC(CC1)Cn1c2nc(C(=O)NCc2ccc(F)cc2)c(O)c1=O` [Example 322, 7,10-Ethanopyrimido[1,2-a]azepine-2-carboxamide, N-[(4-fluorophenyl)methyl]-4,6,7,8,9,10-hexahydro-3-hydroxy-10-[methyl(3-pyridinylcarbonyl)amino]-4-oxo], the IC50 was less than 10 nM.

Regarding `CCCOC(=O)N1CCCC1C(=O)NC12CCC(CC1)Cn1c2nc(C(=O)NCc2ccc(F)cc2)c(O)c1=O` (stereo not drawn) [Example 398], the IC50 is less than 10 nM.

For the compound `CN(C)S(=O)(=O)N1CCN(C(=O)C(=O)NC23CCC(CC2)Cn2c3nc(C(=O)NCc3ccc(F)cc3)c(O)c2=O)CC1` [Example 145, 10-(((4-(Dimethylsulfamoyl)-1-piperazinyl)(oxo)acetyl)amino)-N-(4-fluorobenzyl)-3-hydroxy-4-oxo-4,6,7,8,9,10-hexahydro-7,10-ethanopyrimido[1,2-a]azepine-2-carboxamide], the IC50 was less than 10 nM.

As to `CC(=O)N1CCC1C(=O)NC12CCC(CC1)Cn1c2nc(C(=O)NCc2ccc(F)c(C)c2)c(O)c1=O` (stereo in doubt) [Example 275, 7,10-Ethanopyrimido[1,2-a]azepine-2-carboxamide, 10-[[[(2S)-1-acetyl-2-azetidinyl]carbonyl]amino]-N-[(4-fluoro-3-methylphenyl)methyl]-4,6,7,8,9,10-hexahydro-3-hydroxy-4-oxo-], the IC50 is less than 10 nM.

For `COCCN(C)C(=O)C(=O)NC12CCC(CCn3c1nc(C(=O)NCc1ccc(F)cc1)c(O)c3=O)C2` (stereo not drawn) [Example 205, Ethanediamide, N′-[2-[[[(4-fluorophenyl)methyl]amino]carbonyl]-7,8,9,10-tetrahydro-3-hydroxy-4-oxo-8,11-methano-4H-pyrimido[1,2-a]azocin-11(6H)-yl]-N-(2-methoxyethyl)-N-methyl-], the IC50 was less than 10 nM.

For the compound `CN1CCN(C(=O)C(=O)NC23CCC(CC2)Cn2c3nc(C(=O)NCc3ccc(F)cc3)c(O)c2=O)CC1` [Example 71, N-(4-Fluorobenzyl)-3-hydroxy-10-(((4-methyl-1-piperazinyl)(oxo)acetyl)amino)-4-oxo-4,6,7,8,9,10-hexahydro-7,10-ethanopyrimido[1,2-a]azepine-2-carboxamide], the IC50 was less than 10 nM.

On to `O=C(NC12CCC(CC1)Cn1c2nc(C(=O)NCc2ccc(F)cc2)c(O)c1=O)C(=O)N1CC(O)C1` [Example 65, N-(4-Fluorobenzyl)-3-hydroxy-10-(((3-hydroxy-1-azetidinyl) (oxo)acetyl)amino)-4-oxo-4,6,7,8,9,10-hexahydro-7,10-ethanopyrimido[1,2-a]azepine-2-carboxamide], for which the IC50 was less than 10 nM.

For `CN(C)C(=O)C(=O)NC12CCC(CC1)Cn1c2nc(C(=O)NCc2cc(Br)c(F)cc2Br)c(O)c1=O` [Example 56, N′-(2-((2,5-Dibromo-4-fluorobenzyl)carbamoyl)-3-hydroxy-4-oxo-6,7,8,9-tetrahydro-7,10-ethanopyrimido[1,2-a]azepin-10(4H)-yl)-N,N-dimethylethanediamide], the IC50 is less than 10 nM.

For `O=C(NC12CCC(CC1)Cn1c2nc(C(=O)NCc2ccc(F)cc2)c(O)c1=O)c1ccccc1` [Example 36, N-(4-Fluorobenzyl)-3-hydroxy-4-oxo-10-((phenylcarbonyl)amino)-4,6,7,8,9,10-hexahydro-7,10-ethanopyrimido[1,2-a]azepine-2-carboxamide], the IC50 is less than 10 nM.
